Experimental data from PubChem BioAssay (NCI).
Several values for one entry are separate records, joined by “and”; a condition that tells them apart may be missing. Identical values can stand only once.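 All cell lines were grown in 96-well plates and treated with compound for 48 hours. At the GI50, growth is halved. At the TGI there is no net growth.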 Where a SMILES comes first, the peptide text is derived from it.

Legend:
Experiment in all cases: NCI tumour cell line growth inhibition, 48 h
HOP-18 NSCLC = tested on: HOP-18 NSCLC
T-47D breast = tested on: T-47D breast
LXFL 529 NSCLC = tested on: LXFL 529 NSCLC
MDA-N = tested on: MDA-N
KM20L2 colon = tested on: KM20L2 colon
DMS 114 small cell lung = tested on: DMS 114 small cell lung
RXF-631 renal = tested on: RXF-631 renal
XF 498 CNS = tested on: XF 498 CNS
DLD-1 colon = tested on: DLD-1 colon
P388 leukemia = tested on: P388 leukemia
P388/ADR leukemia = tested on: P388/ADR leukemia

`CC(C)CC(NC(=O)C(CC(C)C)NC(=O)C(Cc1cnc[nH]1)NC(=O)C(C)NC(=O)C(NC(=O)C(C)NC(=O)C(Cc1c[nH]c2ccccc12)NC(=O)C(CCC(=O)O)NC(=O)C(N)Cc1ccccc1)C(C)C)C(N)=O` (stereo not drawn) (H-FEWAVAHLL-NH2; configuration not given here) was tested, and the TGI (HOP-18 NSCLC) was > 100 µM, the TGI (T-47D breast) was > 12.5 µM and the TGI (LXFL 529 NSCLC) was > 100 µM. The TGI (MDA-N) was > 12.5 µM, the TGI (KM20L2 colon) was > 100 µM and the TGI (DMS 114 small cell lung) was > 100 µM. The TGI (RXF-631 renal) was > 100 µM, the TGI (XF 498 CNS) was > 100 µM and the TGI (DLD-1 colon) was > 100 µM.

`CC(=O)O[C@H]1C(=O)O[C@@H]2C[C@H]3C(C)=CC(=O)[C@@H](O)[C@]3(C)[C@H]3[C@@]4(O)OC[C@]32[C@@H]1[C@@H](C)[C@H]4O` was tested, and the TGI (HOP-18 NSCLC) was 1.53 µM, the TGI (P388 leukemia) was 0.555 µM and the TGI (MDA-N) was 0.127 µM. It also gave a TGI (KM20L2 colon) of 2.43 µM, a TGI (DMS 114 small cell lung) of 0.041 µM and a TGI (XF 498 CNS) of 0.243 µM. For the same molecule, the TGI (DLD-1 colon) was 0.403 µM and the TGI (P388/ADR leukemia) was 7.51 µM.

In the case of `CNNCc1ccc(C(=O)NC(C)C)cc1`, the GI50 (HOP-18 NSCLC) is reported as > 500 µM, the TGI (HOP-18 NSCLC) is reported as 139 µM and > 500 µM and the TGI (P388 leukemia) is reported as > 500 µM. The TGI (T-47D breast) was > 500 µM, the TGI (LXFL 529 NSCLC) was > 500 µM and the TGI (MDA-N) was > 500 µM. For the same molecule, the GI50 (KM20L2 colon) was > 500 µM, the TGI (KM20L2 colon) was > 500 µM and the TGI (XF 498 CNS) was > 500 µM. The TGI (DLD-1 colon) was > 500 µM and the TGI (P388/ADR leukemia) was > 500 µM.
